Results reported in patent US20050075358A1, “Methods for treating IGF1R-inhibitor induced hyperglycemia” (priority 2003, published 2005).

What was measured:
[1] = acute OGTT study of combination therapy using Metformin and Inhibitor A in rats; assay type: in vivo
Method: FIG. 2: An acute OGTT study to determine the effects of combination therapy using Metformin and Inhibitor A on glucose-lowering was conducted in rats. In order to stabilize glucose levels, food was withdrawn for 1 hr prior to administration of any reagent. Glucose challenge was administered 2 hrs after the administration of Inhibitor A and plasma glucose monitored. Plasma glucose levels increased upon administration of the Inhibitor (200 mpk) to 150 mg/dl prior to glucose challenge and to 250 mg/dl post-glucose challenge.

[2] = molecular target: T1, insulin receptor (Rattus norvegicus, UniProt P15127); test: acute Oral Glucose Tolerance Test (OGTT) in rats; assay type: in vivo; details: fasted rats, oral single dose 50, 100 and 200 mpk 4 hrs prior to glucose challenge (1 g/kg); glucose at 30, 60, 90, 120 min by glucometer
T1 construct: from tissue; host or cells: whole living rats (in vivo)
T1 sequence (P15127 764-1383 limits assumed): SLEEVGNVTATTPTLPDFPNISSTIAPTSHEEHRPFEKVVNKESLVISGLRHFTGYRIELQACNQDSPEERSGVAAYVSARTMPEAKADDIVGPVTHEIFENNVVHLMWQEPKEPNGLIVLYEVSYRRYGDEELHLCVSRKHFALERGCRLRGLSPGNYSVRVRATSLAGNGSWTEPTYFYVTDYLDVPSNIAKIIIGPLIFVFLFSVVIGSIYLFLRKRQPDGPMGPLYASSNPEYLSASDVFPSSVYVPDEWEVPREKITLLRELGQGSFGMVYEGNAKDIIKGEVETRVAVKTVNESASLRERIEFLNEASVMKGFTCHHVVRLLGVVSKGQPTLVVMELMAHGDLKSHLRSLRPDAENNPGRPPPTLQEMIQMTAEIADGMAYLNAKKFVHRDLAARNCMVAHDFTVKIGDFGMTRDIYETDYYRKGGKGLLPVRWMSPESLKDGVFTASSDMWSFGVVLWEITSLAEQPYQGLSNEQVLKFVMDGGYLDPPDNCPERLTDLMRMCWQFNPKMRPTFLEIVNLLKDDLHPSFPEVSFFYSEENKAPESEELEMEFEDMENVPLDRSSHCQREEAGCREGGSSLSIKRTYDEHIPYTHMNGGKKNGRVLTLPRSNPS
T1 sequence (P15127 27-759 partner limits assumed): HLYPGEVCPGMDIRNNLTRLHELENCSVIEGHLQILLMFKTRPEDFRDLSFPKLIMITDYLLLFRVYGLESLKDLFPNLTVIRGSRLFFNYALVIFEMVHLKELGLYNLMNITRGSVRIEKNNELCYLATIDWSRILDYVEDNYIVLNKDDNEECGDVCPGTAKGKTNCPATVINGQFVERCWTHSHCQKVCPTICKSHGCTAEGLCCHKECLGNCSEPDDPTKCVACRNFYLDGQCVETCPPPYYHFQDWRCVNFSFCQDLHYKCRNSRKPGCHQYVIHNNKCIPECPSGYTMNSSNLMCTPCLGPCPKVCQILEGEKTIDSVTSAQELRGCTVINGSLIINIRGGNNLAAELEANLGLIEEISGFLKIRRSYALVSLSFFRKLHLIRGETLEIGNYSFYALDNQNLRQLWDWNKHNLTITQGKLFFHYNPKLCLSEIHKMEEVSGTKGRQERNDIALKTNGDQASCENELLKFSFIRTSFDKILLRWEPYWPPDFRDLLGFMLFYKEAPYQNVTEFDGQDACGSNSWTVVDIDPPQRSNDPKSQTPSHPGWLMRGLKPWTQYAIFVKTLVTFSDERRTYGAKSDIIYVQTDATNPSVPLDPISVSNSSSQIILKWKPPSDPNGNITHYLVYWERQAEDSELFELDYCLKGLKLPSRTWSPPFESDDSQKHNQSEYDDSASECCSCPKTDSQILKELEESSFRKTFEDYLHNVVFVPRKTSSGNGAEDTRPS
Method: FIG. 1: The effect of inhibition of the insulin receptor was measured using an Oral Glucose Tolerance Test (OGTT). IGF1R Inhibitor A (4-[2-(3-chloro-phenyl)-2-hydroxy-ethylamino]-3-(4-methyl-6-morpholin-4-yl-1H-benzoimidazol-2-yl)-1H-pyridin-2-one) was tested in an acute OGTT study in rats: Fasted rats were orally dosed with Inhibitor A at 50, 100, and 200 mpk as a single dose for 4 hrs prior to glucose challenge (1 g/kg). Glucose was monitored at 30, 60, 90 and 120 minutes post glucose challenge using a glucometer.

SMILES	hyperglycemic effects of Inhibitor A after Metformin pretreatment ([1]; rats pretreated for 1 hr with Metformin 450 mpk, then Inhibitor A 200 mpk)	effect on basal and post-glucose challenge glucose [2]	plasma glucose level post-glucose challenge ([1]; rats, Inhibitor 200 mpk, glucose challenge 2 hrs after Inhibitor A)	plasma glucose level prior to glucose challenge ([1]; rats, Inhibitor 200 mpk, prior to glucose challenge)
CN(C)C(=N)N=C(N)N [Metformin, reference compound]	completely ameliorated			
Cc1cc(N2CCOCC2)cc2[nH]c(-c3c(NCC(O)c4cccc(Cl)c4)cc[nH]c3=O)nc12 (stereo not shown) [Inhibitor A, 4-[2-(3-chloro-phenyl)-2-hydroxy-ethylamino]-3-(4-methyl-6-morpholin-4-yl-1H-benzoimidazol-2-yl)-1H-pyridin-2-one]		more pronounced effect on basal and post-glucose challenge at higher drug concentrations	250 mg/dL	150 mg/dL
